Results published in publication PMC6711467 (Drug delivery and translational research, 2018).
Where “and” joins values, the source holds several entries; their conditions need not be identical. Identical values can stand only once. Like-named read-outs stand apart in the source and are kept apart here. Marks after values point to notes of the source that are not given here.

Experiments:
[1] = Release of drug from the gel into a liquid sink; type: in vitro ADME; details: IQB4012 gel, 1% (w/w) of each drug
[2] = Rectal PK study: IQB4012 gel; type: in vivo, pigtailed macaques; details: for median drug concentration (min-max), Rectal fluids / median drug concentration (min-max), Rectal tissues: N = 6; for levels in blood plasma: below the LLOQ, data not shown; for concentration at 2 h / concentration at 4 h / concentration at 24 h: female, pigtailed macaque, other: rectal
[3] = in vivo
[4] = Vaginal PK study: IQB4012 gel; details: for concentration at 2 h / concentration at 4 h / concentration at 24 h: female, pigtailed macaque, other: vaginal
[5] = rectal gel application, 1 or 4 ml
[6] = vaginal fluid, distal, 1.5 ml gel
[7] = vaginal fluid, proximal, 0.5 ml
[8] = vaginal fluid, proximal, 1.5 ml gel
[9] = vaginal tissue, distal, 1.5 ml gel
[10] = vaginal tissue, medial, 1.5 ml gel
[11] = vaginal tissue, proximal, 0.5 ml
[12] = vaginal application, below the LLOQ, data not shown

With `Cc1cc(C)cc(C(=O)c2c(C(C)C)c(=O)[nH]c(=O)n2CC2CC2)c1` [IQP-0528] the “release from the gel into a liquid sink (Franz Cell)” value [1] was 53.93 μg/cm ^3h, the “median concentrations in rectal fluids” value ([2]; 1 ml gel rectally, 2 to 24 h) was 10^3–10^5 ng/ml and the “median drug concentration (min-max), Rectal fluids” value ([2]; 1 ml gel rectally, 2 h) was 93,375 (2480–420,500) ng/ml. For the same compound, the “median drug concentration (min-max), Rectal fluids” value ([2]; 1 ml gel rectally, 4 h) was 31,000 (545–873,500) ng/ml, the “median drug concentration (min-max), Rectal tissues” value ([2]; 1 ml gel rectally, 4 h) was 9087 (BLLOQ^2-15,150) ng/g and the “median drug concentration (min-max), Rectal fluids” value ([2]; 1 ml gel rectally, 24 h) was 2975 (815–22,900) ng/ml. The “median drug concentration (min-max), Rectal tissues” value ([2]; 1 ml gel rectally, 24 h) was 127 ^* ng/g, the “median drug concentration (min-max), Rectal fluids” value ([2]; 4 ml gel rectally, 2 h) was 106,500 (54,600–769,000) ng/ml and the “median drug concentration (min-max), Rectal fluids” value ([2]; 4 ml gel rectally, 4 h) was 53,775 (9570–930,500) ng/ml. The “median drug concentration (min-max), Rectal tissues” value ([2]; 4 ml gel rectally, 4 h) was 1277 (BLLOQ-51,304) ng/g, the “median drug concentration (min-max), Rectal fluids” value ([2]; 4 ml gel rectally, 24 h) was 7065 (608–43,750) ng/ml and the “median drug concentration (min-max), Rectal tissues” value ([2]; 4 ml gel rectally, 24 h) was 566 (BLLOQ-2228) ng/g. The “levels in blood plasma” value ([2]; rectal application) was < 10 ng/mL, the “rectal tissue samples with detectable concentrations” value ([2]; rectal application, both gel volumes (1 and 4 ml)) was 10^2–10^3 ng/g and the “concentrations sampled in rectal tissues” value [2, 5] was 10^1–10^3 ng/g. For the same compound, the “levels in rectal tissue biopsies” value [3] was “below LLOQ” and the plasma concentrations [3] was < 10 ng/mL.

With `C[C@@H](Cn1cnc2c(N)ncnc21)OCP(=O)(O)OP(=O)(O)OP(=O)(O)O` [TFV-DP, TFV-diphosphate] the “median drug concentration (min-max), Rectal tissues” value ([2]; 1 ml gel rectally, 4 h) was 176 ng/g and 176 (BLLOQ-207) ng/g, the “median drug concentration (min-max), Rectal tissues” value ([2]; 1 ml gel rectally, 24 h) was 70 ng/g and 70 (BLLOQ-128) ng/g and the “median drug concentration (min-max), Rectal tissues” value ([2]; 4 ml gel rectally, 4 h) was 47 ng/g and 47 (BLLOQ-480) ng/g. The “median drug concentration (min-max), Rectal tissues” value ([2]; 4 ml gel rectally, 24 h) was 81 ng/g and 81 (BLLOQ-131) ng/g.

In the case of `C[C@H](Cn1cnc2c(N)ncnc21)OCP(=O)(O)O` [TFV, tenofovir], the “release from the gel into a liquid sink (Franz Cell)” value [1] is reported as 82.51 μg/cm ^3h, the “median drug concentration (min—max), Vaginal fluids, Proximal” value ([4]; 0.5 ml gel vaginally, 2 h, N = 6) is reported as 158,146 (BLLOQ^2-3,025,157) ng/ml and the concentration at 2 h ([4]; rectal fluid, 0.5 ml) is reported as 80 ng/mL. For the same compound, the concentration at 4 h ([4]; rectal fluid, 0.5 ml) was 69 ng/mL, the concentration at 24 h ([4]; rectal fluid, 0.5 ml) was 53 ng/mL and the concentration at 2 h ([4]; rectal fluids, 1.5 ml gel) was 138 ng/mL. The concentration at 4 h ([4]; rectal fluids, 1.5 ml gel) was 156 ng/mL, the concentration at 24 h ([4]; rectal fluids, 1.5 ml gel) was 127 ng/mL and the concentration at 2 h ([4]; vaginal fluid, distal, 0.5 ml) was 232000 ng/mL. It also gave a concentration at 4 h ([4]; vaginal fluid, distal, 0.5 ml) of 132000 ng/mL, a concentration at 24 h ([4]; vaginal fluid, distal, 0.5 ml) of 18700 ng/mL and a concentration at 2 h ([4]; vaginal fluid, distal, 1.5 ml) of 37200 ng/mL. For the same compound, the concentration at 4 h [4, 6] was 153000 ng/mL, the concentration at 24 h [4, 6] was 57000 ng/mL and the concentration at 4 h [4, 7] was 124000 ng/mL. The concentration at 24 h [4, 7] was 48900 ng/mL, the concentration at 2 h ([4]; vaginal fluid, proximal, 1.5 ml) was 30400 ng/mL and the concentration at 4 h [4, 8] was 54300 ng/mL. The concentration at 24 h [4, 8] was 18000 ng/mL, the concentration at 4 h ([4]; vaginal tissue, distal, 0.5 ml) was 13400 ng/g and the concentration at 24 h ([4]; vaginal tissue, distal, 0.5 ml) was 5910 ng/g. It also gave a concentration at 4 h [4, 9] of 19200 ng/g, a concentration at 24 h [4, 9] of 5380 ng/g and a concentration at 4 h ([4]; vaginal tissue, medial, 0.5 ml) of 8860 ng/g. For the same compound, the concentration at 24 h ([4]; vaginal tissue, medial, 0.5 ml) was 3550 ng/g, the concentration at 4 h [4, 10] was 10200 ng/g and the concentration at 24 h [4, 10] was 12200 ng/g. It also gave a concentration at 4 h [4, 11] of 4490 ng/g, a concentration at 24 h [4, 11] of 16900 ng/g and a concentration at 4 h ([4]; vaginal tissue, proximal, 1.5 ml gel) of 35100 ng/g. The “median concentrations in rectal fluids” value ([4]; vaginal application of either volume (0.5 or 1.5 ml), over 24 h) was ≤ 200 ng/mL, the “concentrations in rectal biopsy tissues” value [4, 12] was < 1 ng/sample and the plasma concentrations [4, 12] was < 10 ng/mL. The “median drug concentration (min-max), Rectal tissues” value ([2]; 1 ml gel rectally, 24 h) was 659 (BLLOQ-3586) ng/g, the “median drug concentration (min-max), Rectal tissues” value ([2]; 4 ml gel rectally, 4 h) was 393 (BLLOQ-11,464) ng/g and the concentration at 2 h ([2]; rectal fluid, 1 ml) was 3230 ng/mL. For the same compound, the concentration at 4 h ([2]; rectal fluid, 1 ml) was 705 ng/mL, the concentration at 24 h ([2]; rectal fluid, 1 ml) was 132 ng/mL and the concentration at 2 h ([2]; rectal fluid, 4 ml) was 5060 ng/mL. For the same compound, the concentration at 4 h ([2]; rectal fluid, 4 ml) was 864 ng/mL, the concentration at 24 h ([2]; rectal fluid, 4 ml) was 277 ng/mL and the concentration at 4 h ([2]; rectal tissue, 1 ml) was 811 ng/g. The concentration at 24 h ([2]; rectal tissue, 1 ml) was 659 ng/g, the concentration at 4 h ([2]; rectal tissue, 4 ml) was 393 ng/g and the concentration at 24 h ([2]; rectal tissue, 4 ml) was 1410 ng/g. It also gave a concentration at 2 h ([2]; pigtailed, rectal fluid, 1 ml) of 3230 ng/mL, a concentration at 4 h ([2]; pigtailed, rectal fluid, 1 ml) of 705 ng/mL and a concentration at 24 h ([2]; pigtailed, rectal fluid, 1 ml) of 132 ng/mL. It also gave a concentration at 2 h ([2]; pigtailed, rectal fluid, 4 ml) of 5060 ng/mL, a concentration at 4 h ([2]; pigtailed, rectal fluid, 4 ml) of 864 ng/mL and a concentration at 24 h ([2]; pigtailed, rectal fluid, 4 ml) of 277 ng/mL. For the same compound, the concentration at 4 h ([2]; pigtailed, rectal tissue, 1 ml) was 811 ng/g, the concentration at 24 h ([2]; pigtailed, rectal tissue, 4 ml) was 1410 ng/g and the “levels in blood plasma” value ([2]; rectal application) was < 10 ng/mL. For the same compound, the “concentrations sampled in rectal tissues” value [2, 5] was 10^1–10^3 ng/g and the “median concentrations in rectal fluids” value [2, 5] was 10^2–10^3 ng/ml.
